Legend:
Test in all cases: fitness (endpoint OD595 vs no drug) (fraction); higher = more growth
B. subtilis 168 = system: B. subtilis 168
Procedure, shortened: (§1)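 With the first reading as background, OD595 was measured every 30 min for 14 h in 384-well plates kept at 37 °C and inoculated at OD595 0.01. TSB, LB Lennox or CY was the medium. Fitness is the optical density at the transition into stationary phase divided by the robust mean of no-drug control wells, with a cap of 1.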

S. aureus Newman = system: S. aureus Newman
Procedure, shortened: as §1

S. pneumoniae D39V = system: S. pneumoniae D39V
Procedure, shortened: as §1
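Further: OD595 on entry to stationary phase over no-drug wells; at most 1.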

COc1cccc2c1C(=O)c1c(O)c3c(c(O)c1C2=O)C[C@@](O)(C(=O)CO)C[C@@H]3O[C@H]1C[C@H](N)[C@H](O)[C@H](C)O1 [Doxorubicin] + CC1=C(C(=O)O)N2C(=O)[C@@H](NC(=O)[C@H](N)c3ccccc3)[C@H]2SC1 [Cephalexin]
fitness
Settings | first compound 0.25 µg/mL | first compound 0.5 µg/mL | first compound 0.625 µg/mL | first compound 1 µg/mL | first compound 1.25 µg/mL | first compound 2.5 µg/mL
B. subtilis 168, partner 0.125 µg/mL | – | – | 0.917 | – | 0.897 | 0.733
B. subtilis 168, partner 0.25 µg/mL | – | – | 0.964 | – | 0.89 | 0.68
B. subtilis 168, partner 0.5 µg/mL | – | – | 0.969 | – | 0.941 | 0.655
S. aureus Newman, partner 0.25 µg/mL | – | – | 0.771 | – | 0.824 | 0.744
S. aureus Newman, partner 0.5 µg/mL | – | – | 0.844 | – | 0.834 | 0.758
S. aureus Newman, partner 1 µg/mL | – | – | 0.823 | – | 0.861 | 0.83
S. pneumoniae D39V, partner 2 µg/mL | 0.0496 | 0.0845 | – | 0.105 | – | –
S. pneumoniae D39V, partner 4 µg/mL | 0.0361 | 0.0467 | – | 0.0242 | – | –

fitness, one replicate
Settings | first compound 0.25 µg/mL | first compound 0.5 µg/mL | first compound 0.625 µg/mL | first compound 1 µg/mL | first compound 1.25 µg/mL | first compound 2.5 µg/mL
B. subtilis 168, partner 1 µg/mL | – | – | ≥ 1 | – | 0.98 | 0.703
S. pneumoniae D39V, partner 0.125 µg/mL | 0.866 | 0.98 | – | 0.905 | – | –
S. pneumoniae D39V, partner 0.25 µg/mL | 0.862 | 0.876 | – | 0.861 | – | –
S. pneumoniae D39V, partner 0.5 µg/mL | 0.878 | 0.872 | – | 0.898 | – | –

CC1(C)S[C@@H]2[C@H](NC(=O)Cc3ccccc3)C(=O)N2[C@H]1C(=O)O [Penicillin G] + CC1=C\[C@@H](O)CC(=O)Cc2nc(co2)C(=O)N2CCC=C2C(=O)O[C@H](C(C)C)[C@H](C)/C=C/C(=O)NC\C=C\1 [Virginiamycin M1]
fitness, S. aureus Newman
Settings | first compound 0.0195 µg/mL | first compound 0.039 µg/mL | first compound 0.078 µg/mL
partner 0.0625 µg/mL | 0.896 | 0.929 | 0.917
partner 0.125 µg/mL | 0.935 | 0.924 | 0.955
partner 0.25 µg/mL | 0.914 | 0.913 | 0.925

fitness, S. aureus Newman, one replicate
Settings | first compound 0.0195 µg/mL | first compound 0.039 µg/mL | first compound 0.078 µg/mL
partner 0.5 µg/mL | 0.834 | 0.766 | 0.788
partner 1 µg/mL | 0.916 | 0.877 | 0.856
partner 2 µg/mL | 0.807 | 0.741 | 0.717

CC1(C)S[C@@H]2[C@H](NC(=O)Cc3ccccc3)C(=O)N2[C@H]1C(=O)O [Penicillin G] + CCCCCCCCCC(=O)N[C@@H]1[C@H]([C@@H]([C@H](O[C@H]1OC2=C3C=C4C=C2OC5=C(C=C(C=C5)[C@H]([C@H]6C(=O)N[C@@H](C7=C(C(=CC(=C7)O)OC8[C@H]([C@H]([C@@H]([C@H](O8)CO)O)O)O)C9=C(C=CC(=C9)[C@H](C(=O)N6)NC(=O)[C@@H]4NC(=O)[C@@H]1C2=CC(=CC(=C2)OC2=C(C=CC(=C2)[C@H](C(=O)N[C@H](CC2=CC(=C(O3)C=C2)Cl)C(=O)N1)N)O)O)O)C(=O)O)O[C@H]1[C@@H]([C@H]([C@@H]([C@H](O1)CO)O)O)NC(=O)C)Cl)CO)O)O [Teicoplanin]
fitness, S. aureus Newman, main component drawn
Settings | first compound 0.0195 µg/mL | first compound 0.039 µg/mL | first compound 0.078 µg/mL
partner 0.1562 µg/mL | 0.983 | ≥ 1 | ≥ 1
partner 0.3125 µg/mL | 0.955 | 0.924 | 0.921
partner 0.625 µg/mL | 0.803 | 0.824 | 0.776

fitness, S. aureus Newman, one replicate, main component drawn
Settings | first compound 0.0195 µg/mL | first compound 0.039 µg/mL | first compound 0.078 µg/mL
partner 0.62 µg/mL | 0.697 | 0.741 | 0.715
partner 1.24 µg/mL | 0.702 | 0.732 | 0.711
partner 2.48 µg/mL | 0.377 | 0.393 | 0.284

CC1(C)S[C@@H]2[C@H](NC(=O)Cc3ccccc3)C(=O)N2[C@H]1C(=O)O [Penicillin G] + CN[C@@H]1[C@H](O[C@H]2[C@H](O[C@H]3[C@H](O)[C@@H](O)[C@H](N=C(N)N)[C@@H](O)[C@@H]3N=C(N)N)O[C@@H](C)[C@]2(O)C=O)O[C@@H](CO)[C@H](O)[C@H]1O [Streptomycin]
fitness, S. aureus Newman
Settings | first compound 0.0195 µg/mL | first compound 0.039 µg/mL | first compound 0.078 µg/mL
partner 1 µg/mL | 0.903 | 0.878 | 0.887
partner 2 µg/mL | 0.829 | 0.865 | 0.863

CO/N=C(\C(=O)N[C@@H]1C(=O)N2C(C(=O)O)=C(COC(N)=O)CS[C@H]12)c1ccco1 [Cefuroxime] + CC1(C)S[C@@H]2[C@H](NC(=O)Cc3ccccc3)C(=O)N2[C@H]1C(=O)O [Penicillin G]
fitness, S. aureus Newman, one replicate
Settings | first compound 0.04875 µg/mL | first compound 0.0975 µg/mL | first compound 0.195 µg/mL
partner 0.0195 µg/mL | 0.873 | 0.849 | 0.889
partner 0.039 µg/mL | 0.959 | 0.831 | 0.907
partner 0.078 µg/mL | 0.898 | 0.888 | 0.906

CC1(C)S[C@@H]2[C@H](NC(=O)Cc3ccccc3)C(=O)N2[C@H]1C(=O)O [Penicillin G] + CN(C)c1cc(NC(=O)CNC(C)(C)C)c(O)c2c1C[C@H]1C[C@H]3[C@H](N(C)C)C(O)=C(C(N)=O)C(=O)[C@@]3(O)C(O)=C1C2=O [Tigecycline]
fitness, S. aureus Newman
Settings | first compound 0.0195 µg/mL | first compound 0.039 µg/mL | first compound 0.078 µg/mL
partner 0.039 µg/mL | 0.879 | 0.879 | 0.864
partner 0.078 µg/mL | 0.898 | 0.919 | 0.913
partner 0.156 µg/mL | 0.904 | 0.924 | 0.913

O=C(O)c1cn(C2CC2)c2cc(N3CCNCC3)c(F)cc2c1=O [Ciprofloxacin] + CO[C@@]12[C@H](COC(N)=O)C3=C(C(=O)C(C)=C(N)C3=O)N1C[C@@H]1N[C@@H]12 [Mitomycin C]
Settings | fitness
S. aureus Newman, first compound 0.0375 µg/mL, partner 0.0156 µg/mL | 0.609
S. aureus Newman, first compound 0.0375 µg/mL, partner 0.0312 µg/mL | 0.557
S. aureus Newman, first compound 0.0375 µg/mL, partner 0.0625 µg/mL | 0.366
S. aureus Newman, first compound 0.075 µg/mL, partner 0.0156 µg/mL | 0.573
S. aureus Newman, first compound 0.075 µg/mL, partner 0.0312 µg/mL | 0.497
S. aureus Newman, first compound 0.075 µg/mL, partner 0.0625 µg/mL | 0.219
S. aureus Newman, first compound 0.15 µg/mL, partner 0.0156 µg/mL | 0.152
S. aureus Newman, first compound 0.15 µg/mL, partner 0.0312 µg/mL | 0.0809
S. aureus Newman, first compound 0.15 µg/mL, partner 0.0625 µg/mL | 0.0294
S. pneumoniae D39V, first compound 0.125 µg/mL, partner 0.001075 µg/mL | 0.917
S. pneumoniae D39V, first compound 0.125 µg/mL, partner 0.002 µg/mL | 0.75
S. pneumoniae D39V, first compound 0.125 µg/mL, partner 0.00215 µg/mL | 0.892
S. pneumoniae D39V, first compound 0.125 µg/mL, partner 0.004 µg/mL | 0.632
S. pneumoniae D39V, first compound 0.125 µg/mL, partner 0.0043 µg/mL | 0.766
S. pneumoniae D39V, first compound 0.125 µg/mL, partner 0.008 µg/mL | 0.322
S. pneumoniae D39V, first compound 0.25 µg/mL, partner 0.001075 µg/mL | 0.861
S. pneumoniae D39V, first compound 0.25 µg/mL, partner 0.00215 µg/mL | 0.822
S. pneumoniae D39V, first compound 0.25 µg/mL, partner 0.0043 µg/mL | 0.736
S. pneumoniae D39V, first compound 0.5 µg/mL, partner 0.001075 µg/mL | 0.658
S. pneumoniae D39V, first compound 0.5 µg/mL, partner 0.00215 µg/mL | 0.643
S. pneumoniae D39V, first compound 0.5 µg/mL, partner 0.0043 µg/mL | 0.523
S. pneumoniae D39V, first compound 0.5 µg/mL, partner 0.008 µg/mL | 0.188

S. pneumoniae D39V, first compound 0.25 µg/mL, one replicate
Settings | fitness
partner 0.002 µg/mL | 0.541
partner 0.004 µg/mL | 0.394
partner 0.008 µg/mL | 0.154

CC1(C)S[C@@H]2[C@H](NC(=O)Cc3ccccc3)C(=O)N2[C@H]1C(=O)O [Penicillin G] + Cc1cc(NS(=O)(=O)c2ccc(N)cc2)no1 [Sulfamethoxazol]
fitness, S. aureus Newman
Settings | first compound 0.0195 µg/mL | first compound 0.039 µg/mL | first compound 0.078 µg/mL
partner 1 µg/mL | 0.929 | 0.912 | 0.888
partner 2 µg/mL | 0.957 | – | 0.879

S. aureus Newman, partner 8 µg/mL, one replicate
Settings | fitness
first compound 0.0195 µg/mL | 0.859
first compound 0.039 µg/mL | 0.87
first compound 0.078 µg/mL | 0.882
